One experiment has as its target Aurora-1 (Aurora B) (Homo sapiens, UniProt Q96GD4). Description: Aurora-1 (Aurora B) inhibition assay (radiometric). Format: biochemical. To be noted: read-out: Aurora B kinase Ki value. In outline:
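Ki values come from non-linear regression of background-corrected initial-rate data. The enzyme was preincubated 10 min at 25° C with compound, then reacted 3 h with 800 μM (final) [γ-^33P]-ATP in HEPES pH 7.5/MgCl2/BSA/glycerol buffer. The reaction was stopped with phosphoric acid and substrate-bound ^33P counted on phosphocellulose.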

For a further experiment, the target named is T1, Aurora-2 (Aurora A) (Homo sapiens, UniProt O14965).
T1 sequence (O14965 1-403): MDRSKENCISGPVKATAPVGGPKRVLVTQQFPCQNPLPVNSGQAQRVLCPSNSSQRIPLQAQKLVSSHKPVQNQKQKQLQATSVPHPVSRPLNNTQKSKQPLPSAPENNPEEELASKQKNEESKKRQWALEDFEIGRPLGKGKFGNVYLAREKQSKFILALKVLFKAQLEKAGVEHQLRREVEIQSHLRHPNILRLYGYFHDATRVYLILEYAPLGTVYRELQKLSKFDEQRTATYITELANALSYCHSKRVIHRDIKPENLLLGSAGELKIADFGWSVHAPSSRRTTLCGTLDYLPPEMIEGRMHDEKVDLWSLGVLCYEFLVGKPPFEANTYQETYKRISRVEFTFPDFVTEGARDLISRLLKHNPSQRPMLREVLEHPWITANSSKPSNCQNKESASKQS
Nature of the experiment: Aurora-2 (Aurora A) inhibition assay, coupled enzyme. Format: biochemical. The following applies: read-out: Aurora A kinase Ki value. In outline:
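These rates came from NADH consumption coupled through pyruvate kinase and lactate dehydrogenase (100 mM Hepes pH 7.5, 10 mM MgCl2, 300 μM NADH). Aurora-2 was present at 40 nM, and the reaction ran at 30 °C after a 10 min preincubation.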

A further experiment has as its target T2, JAK3 (Homo sapiens, UniProt P52333).
T2 sequence (P52333 1-1124): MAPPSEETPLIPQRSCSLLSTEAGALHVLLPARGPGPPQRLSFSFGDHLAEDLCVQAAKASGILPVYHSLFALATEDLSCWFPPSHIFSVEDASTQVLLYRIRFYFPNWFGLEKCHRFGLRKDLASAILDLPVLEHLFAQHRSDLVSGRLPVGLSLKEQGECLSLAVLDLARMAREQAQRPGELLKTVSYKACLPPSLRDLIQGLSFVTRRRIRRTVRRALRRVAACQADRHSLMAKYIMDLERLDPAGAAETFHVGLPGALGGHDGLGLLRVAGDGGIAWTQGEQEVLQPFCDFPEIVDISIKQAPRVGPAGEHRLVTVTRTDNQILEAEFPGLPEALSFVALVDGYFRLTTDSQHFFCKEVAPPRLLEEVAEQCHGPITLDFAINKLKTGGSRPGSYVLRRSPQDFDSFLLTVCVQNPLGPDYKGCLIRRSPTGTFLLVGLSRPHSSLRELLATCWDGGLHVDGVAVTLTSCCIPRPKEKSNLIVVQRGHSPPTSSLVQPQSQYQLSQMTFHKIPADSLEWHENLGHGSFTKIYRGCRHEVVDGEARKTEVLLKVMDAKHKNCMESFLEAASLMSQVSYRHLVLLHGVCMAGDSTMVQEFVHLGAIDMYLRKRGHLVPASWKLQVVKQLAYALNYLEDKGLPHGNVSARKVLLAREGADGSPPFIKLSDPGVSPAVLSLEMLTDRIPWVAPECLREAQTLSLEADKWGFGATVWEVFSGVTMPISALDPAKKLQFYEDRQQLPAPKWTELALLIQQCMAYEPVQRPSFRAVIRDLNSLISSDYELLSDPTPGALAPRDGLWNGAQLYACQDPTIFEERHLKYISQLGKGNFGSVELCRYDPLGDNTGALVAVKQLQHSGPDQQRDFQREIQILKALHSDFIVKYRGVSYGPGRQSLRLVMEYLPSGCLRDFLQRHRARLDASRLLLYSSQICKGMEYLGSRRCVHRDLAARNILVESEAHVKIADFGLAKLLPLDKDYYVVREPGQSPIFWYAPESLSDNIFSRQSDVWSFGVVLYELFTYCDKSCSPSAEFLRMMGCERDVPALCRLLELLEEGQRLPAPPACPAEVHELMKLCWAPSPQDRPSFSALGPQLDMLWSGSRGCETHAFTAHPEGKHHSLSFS
Nature of the experiment: biochemical.

“And” between values parts separate entries of the source, which are not always exact repeats. Equal values may be shown once. Read-outs that look alike come from different tables or passages of the source.

Our source for the Ki values is patent US8637511B2, “Aminopyrimidines useful as kinase inhibitors” (Vertex Pharmaceuticals Incorporated, priority 2005, dated 2014).

Aurora-1 (Aurora B), sequence (Q96GD4 whole entry): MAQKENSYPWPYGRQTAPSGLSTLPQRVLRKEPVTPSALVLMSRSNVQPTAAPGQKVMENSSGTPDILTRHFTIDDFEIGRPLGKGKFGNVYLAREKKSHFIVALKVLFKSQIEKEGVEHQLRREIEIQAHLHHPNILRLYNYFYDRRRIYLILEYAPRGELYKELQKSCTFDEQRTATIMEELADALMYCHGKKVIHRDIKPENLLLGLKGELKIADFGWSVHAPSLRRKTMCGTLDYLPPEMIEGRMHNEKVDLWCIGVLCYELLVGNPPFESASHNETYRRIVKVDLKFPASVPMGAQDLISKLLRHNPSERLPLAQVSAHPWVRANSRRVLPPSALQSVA

In general, Ki refers to a dissociation constant, usually derived from enzyme kinetics or from competition with a known ligand. Regarding `CCOC1CN(c2cc(Nc3cc(C)[nH]n3)nc(Sc3ccc(NC(=O)c4ccccc4Cl)cc3)n2)C1` [Compound 37], the values for the Ki at Aurora-1 (Aurora B), on Aurora-2 (Aurora A) and on JAK3 (read-out: JAK3 Ki value) were at most 10 nM, at most 1 nM and at most 10 nM, respectively.
Regarding `Cc1cc(Nc2cc(N3CC(O)(C4CC4)C3)nc(Sc3ccc(NC(=O)C4CC4)c(F)c3)n2)[nH]n1` [Compound 109], the inhibition constant Ki on Aurora-1 (Aurora B) was 10 to 50 nM; at Aurora-2 (Aurora A), at most 1 nM; at JAK3 (read-out: JAK3 Ki value), 10 to 500 nM.
Consider `Cc1cc(Nc2cc(N3CC(N4CCOCC4)C3)nc(Sc3ccc4c(c3)CN(CC(F)(F)F)C4=O)n2)[nH]n1` [Compound 173], for which the Ki was 10 to 50 nM and < 25 nM on Aurora-1 (Aurora B); at most 1 nM on Aurora-2 (Aurora A); at most 10 nM on JAK3.
As for `CCC(=O)Nc1ccc(Sc2nc(Nc3cc(C)n[nH]3)cc(N3CC(C)(N4CCOCC4)C3)n2)cc1` [Compound 88], the values for the Ki at Aurora-1 (Aurora B), at Aurora-2 (Aurora A) and on JAK3 (read-out: JAK3 Ki value) were at most 10 nM, at most 1 nM and at most 10 nM, respectively.
Regarding `CCC(=O)Nc1ccc(Sc2nc(Nc3cc(C)n[nH]3)cc(N3CC(OC(C)(C)C)C3)n2)cc1` [Compound 67], the Ki was 50 to 2000 nM on Aurora-1 (Aurora B), at most 1 nM at Aurora-2 (Aurora A) and 10 to 500 nM at JAK3 (read-out: JAK3 Ki value).
On to `Cc1cnc(Nc2cc(N3CC(F)(C4CC4)C3)nc(Oc3ccc(NC(=O)CC(F)(F)F)cc3)n2)s1` [Compound 181], for which the inhibition constant (Ki) at Aurora-1 (Aurora B) was 10 to 50 nM; at Aurora-2 (Aurora A), at most 1 nM; on JAK3 (read-out: JAK3 Ki value) it was at most 10 nM.
Turning to `Cc1cc(Nc2cc(N3CC(F)(C4CC4)C3)nc(Oc3ccc(NC(=O)CC(F)(F)F)cc3)n2)[nH]n1` [Compound 144], the Ki is 10 to 50 nM and < 25 nM at Aurora-1 (Aurora B); at most 1 nM on Aurora-2 (Aurora A); 10 to 500 nM at JAK3.
Consider `Cc1cc(Nc2cc(N3CC(C)(C#N)C3)nc(Sc3ccc(NC(=O)CC(F)(F)F)cc3)n2)[nH]n1` [Compound 169], for which the Ki at Aurora-1 (Aurora B) was at most 10 nM; at Aurora-2 (Aurora A), at most 1 nM; on JAK3 (read-out: JAK3 Ki value) it was 10 to 500 nM.
On to `Cc1cc(Nc2cc(N3CC(C)(C(C)(C)F)C3)nc(Sc3ccc(NC(=O)CC(F)(F)F)cc3)n2)[nH]n1` [Compound 183], for which the figures for the Ki on Aurora-1 (Aurora B), on Aurora-2 (Aurora A) and on JAK3 (read-out: JAK3 Ki value) were at most 10 nM, at most 1 nM and at most 10 nM, respectively.
On to `Cc1cc(Nc2cc(N3CC(N4CCCC4)C3)nc(Sc3ccc(NC(=O)CC(F)(F)F)cc3)n2)[nH]n1` [Compound 204], for which the values for the Ki on Aurora-1 (Aurora B), on Aurora-2 (Aurora A) and at JAK3 (read-out: JAK3 Ki value) were at most 10 nM, at most 1 nM and 10 to 500 nM, respectively.
For `CC(C)=C1CN(c2cc(Nc3cc(C)n[nH]3)nc(Sc3ccc(NC(=O)CC(F)(F)F)cc3)n2)C1` [Compound 184], the Ki at Aurora-1 (Aurora B) was 10 to 50 nM and < 25 nM; at Aurora-2 (Aurora A) it was at most 1 nM; at JAK3 it was 10 to 500 nM.
For `Cc1cc(Nc2cc(N3CC(F)(C4CC4)C3)nc(Sc3ccc(NS(C)(=O)=O)cc3)n2)[nH]n1` [Compound 151], the Ki at Aurora-1 (Aurora B) is 50 to 2000 nM; at Aurora-2 (Aurora A), at most 1 nM; on JAK3, at most 10 nM.
Consider `Cc1cc(Nc2cc(N3CC(C)(F)C3)nc(Sc3ccc(NC(=O)CC(F)(F)F)cc3)n2)n[nH]1` [Compound 168, N-(4-(4-(5-methyl-1H-pyrazol-3-ylamino)-6-(3-fluoro-3-methylazetidin-1-yl)pyrimidin-2-ylthio)phenyl)-3,3,3-trifluoropropanamide], for which the figures for the Ki on Aurora-1 (Aurora B), at Aurora-2 (Aurora A) and on JAK3 (read-out: JAK3 Ki value) were at most 10 nM, at most 1 nM and 10 to 500 nM, respectively.
On to `CCC(=O)Nc1ccc(Sc2nc(Nc3cc(C)n[nH]3)cc(N3CC(C)(N4CCCC4)C3)n2)cc1` [Compound 89], for which the Ki was at most 10 nM at Aurora-1 (Aurora B), at most 1 nM at Aurora-2 (Aurora A) and 10 to 500 nM at JAK3.
As for `Cc1cc(Nc2cc(N3CC(F)(C4CC4)C3)nc(Sc3ccc(C(=O)NCC(F)(F)F)cc3)n2)[nH]n1` [Compound 205], the Ki on Aurora-1 (Aurora B) is 10 to 50 nM and < 25 nM; on Aurora-2 (Aurora A), at most 1 nM; at JAK3 (read-out: JAK3 Ki value), 10 to 500 nM.
Turning to `Cc1cc(Nc2cc(N3CC(O)(C4CC4)C3)nc(Sc3cc(F)c4nc(C)ccc4c3)n2)[nH]n1` [Compound 172], the results for the Ki on Aurora-1 (Aurora B), on Aurora-2 (Aurora A) and on JAK3 were at most 10 nM, at most 1 nM and at most 10 nM, respectively.
Consider `CCC(=O)Nc1ccc(Sc2nc(Nc3cc(C)n[nH]3)cc(N3CC(N4CCOCC4)C3)n2)cc1` [Compound 68], for which the Ki at Aurora-1 (Aurora B) was 50 to 2000 nM; on Aurora-2 (Aurora A) it was at most 1 nM; at JAK3 it was 10 to 500 nM.
As to `Cc1cc(Nc2cc(N3CC(N4CCOCC4)C3)nc(Sc3ccc4nc(CC(F)(F)F)n(C)c4c3)n2)[nH]n1` [Compound 177], the Ki at Aurora-1 (Aurora B) is at most 10 nM; at Aurora-2 (Aurora A), at most 1 nM; on JAK3, 10 to 500 nM.
